Series [1] can be described thus: Fluorescence spectra of labeling compounds. The series is classed as physicochemical. How it is done:
Compound 5 (40 mg, 64 μmol) in DMF (1 ml) was added with N-hydroxysuccinic anhydride (8.8 mg, 76 μmol) and N,N'-dicyclohexylcarbodiimide (DCC, 26.4 mg, 0.128 mmol) and the mixture was allowed to react at 4° C. overnight. Ether (10 ml) was added to the reaction mixture and the resulting residue was washed three times with ether. The solid mass was dissolved in chloroform (400 μl), and the solution was added with 0.1M aqueous hydrochloric acid (200 μl) and stirred. Then, the chloroform layer was separated and washed three times with water. The chloroform solution was concentrated under reduced pressure to obtain Compound 6 as black green solid (a labeling compound of the formula (III)) (38 mg, yield 78.5%). MS (FAB) m/e=720(M^+); Fluorescence spectra: λex =769 nm, λem =820 nm (10% DMSO in water).
Compound 5 (20 mg, 32 μmol) in DMF (1 ml) was added with sodium N-hydroxysuccinic anhydride sulfonate (8.3 mg, 38 μmol) and N,N'-dicyclohexylcarbodiimide (13.2 mg, 64 μmol), and the mixture was allowed to react at 4° C. overnight and then filtered. Ether (10 ml) was added to the filtrate and the resulting residue was washed three times with ether. The solid mass was dissolved in […] (400 μl), and the solution was added with 0.1M aqueous hydrochloric acid (200 μl) and stirred. Then, the chloroform layer was separated and washed three times with water. The chloroform solution was concentrated under reduced pressure to obtain Compound 7 as black green solid (labeling compound of the formula (III), 17 mg, yield 66.4%). MS (FAB) m/e=822 (M^+ Na); Fluorescence spectra λex =769 nm, λem =820 nm (10% DMSO in water).
Compound 5 (20 mg, 32 μmol) in DMF (0.5 ml) was added with N-(2-(N'-maleimide)ethyl)piperazine dihydrochloride (PEM, 4.4 mg, 38 μmol), triethylamine (TEA, 20 μl, 0.146 mmol) and DCC (10.2 mg, 49 μmol), and the mixture was allowed to react at 4° C. overnight. Ether (10 ml) was added to the reaction mixture and the resulting residue was washed three times with ether. The solid mass was dissolved in chloroform (400 μl), and the solution was added with 0.1M aqueous hydrochloric acid (200 μl) and stirred. Then, the chloroform layer was separated and washed three times with water. The chloroform solution was concentrated under reduced pressure to obtain Compound 8 as black green solid (labeling compound of the formula (III), 20 mg, yield 70.5%). MS (FAB) m/e=814(M^+); Fluorescence spectra λex =773 nm, λem =821 nm (10% DMSO in water).
Compound 6 (20 mg, 26.4 μmol) in DMF (0.5 ml) was added with hydrazine monohydrochloride (9.0 mg, 0.131 mmol) and the mixture was allowed to react overnight. The reaction mixture was filtered and the filtrate was concentrated under reduced pressure. The residue was dissolved in chloroform (0.5 ml) and the chloroform solution was washed with water three times. The chloroform layer was concentrated under reduced pressure to obtain Compound 9 as black green solid (16 mg, yield 90.0%). MS (FAB) m/e=637(M^+); Fluorescence spectra: λex =771 nm, λem =820 nm (10% DMSO in water).
Compound 12 (30 mg, 41.8 μmol) in a 50 v/v % aqueous solution of THF (1 ml) was added with sodium N-hydroxysuccinic anhydride-sulfonate (16.8 mg, 77.4 μmol) and N,N'-dicyclohexylcarbodiimide (25.8 mg, 0.125 mmol), and the mixture was allowed to react at 4° C. overnight and then filtered. The filtrate was concentrated under reduced pressure at a temperature of 20° C. or less. The residue was added with ethyl acetate (10 ml) and the deposited crystals were further washed with ether three times. These crystals were dissolved in water (200 μl) and purified using a Sephadex LH20 column (eluent: water) to obtain Compound 13 as black green solid (labeling compound of the formula (III), 34 mg, yield 88.8%). MS (FAB) m/e=892(M^-); Fluorescence spectrum λex =771 nm, λem =822 nm (water). […]

Series [2] is described as follows: Water solubility of labeling compounds before (zwitterion type) and after (double salt type) salt formation. The series is classed as physicochemical. As to conditions: for solubility: water, zwitterion type. How it is done:
The above-obtained Compound 17 (100 mg, 0.11 mmol) was dissolved in methanol (2 ml) and the solution was added with a solution of sodium iodide (1 g, 6.7 mmol) in methanol (5 ml). The methanol solution was concentrated to a half of the volume and cooled to 4° C. overnight. The precipitated crystals were collected by filtration. The obtained green crystals were dried in a vacuum desiccator to give Compound 18 (labeling compound of the formula (V), 85 mg, yield 72%). Data of water-solubility and infrared absorption spectrum data (IR) were obtained before the formation of the salt with sodium iodide (zwitterion type) and after the salt formation. The iodide content was determined by the Schoniger method.
Indocyanine green-N-butanoic acid sulfosuccinimide ester (Compound 19) was prepared according to the method of Example 3. Compound 19 (150 mg, 0.17 mmol) was dissolved in methanol (3 ml) and the solution was added with a solution of sodium iodide (1.5 g, 10 mmol) in methanol (8 ml). The methanol was concentrated to a half of the volume and the concentrate was cooled to 4° C. overnight. The precipitated crystals were collected by filtration. The obtained green crystals were dried in a vacuum desiccator to give Compound 20 (labeling compound of the formula (V), 117 mg, yield 66%). Data of water-solubility and infrared absorption spectra data (IR) were obtained before and after the salt formation with sodium iodide. Iodine content was determined by the Schoniger method.
Indocyanine green-N-hexanoic acid sulfosuccinimide ester (Compound 21) was prepared according to the method of Example 3. Compound 21 (100 mg, 0.11 mmol) was dissolved in methanol (2 ml) and the solution was added with a solution of sodium perchlorate (0.3 g, 2.5 mmol) in methanol (20 ml). The methanol was concentrated to a quarter of the volume under reduced pressure and the concentrate was cooled to 4° C. overnight. The precipitated crystals were collected by filtration. The obtained green crystals were dried in a vacuum desiccator to give Compound 22 (labeling compound of the formula (V), 23 mg, yield 21%). Data of water-solubility and IR were obtained before and after the salt formation with sodium perchlorate.

As to `CC[N+]1=C(C=CC=CC=CC=C2N(CCCCCC(=O)ON3C(=O)CCC3=O)c3ccc4ccccc4c3C2(C)C)C(C)(C)c2c1ccc1ccccc21` [Compound 6], in series [1] (10% DMSO in water), the “Fluorescence spectra λem” value was 820 nm and the “Fluorescence spectra λex” value amounted to 769 nm.

Consider `CC[N+]1=C(C=CC=CC=CC=C2N(CCCCCC(=O)ON3C(=O)CC(S(=O)(=O)O)C3=O)c3ccc4ccccc4c3C2(C)C)C(C)(C)c2c1ccc1ccccc21` (stereo not shown) [Compound 7], for which, in series [1] (10% DMSO in water), the “Fluorescence spectra λem” value was 820 nm and the “Fluorescence spectra λex” value was determined as 769 nm.

As to `CC[N+]1=C(C=CC=CC=CC=C2N(CCCCCC(=O)N3CCN(CCN4C(=O)C=CC4=O)CC3)c3ccc4ccccc4c3C2(C)C)C(C)(C)c2c1ccc1ccccc21` [Compound 8], in series [1] (10% DMSO in water), the “Fluorescence spectra λem” value was 821 nm and the “Fluorescence spectra λex” value is reported as 773 nm.

Take `CC[N+]1=C(C=CC=CC=CC=C2N(CCCCCC(=O)NN)c3ccc4ccccc4c3C2(C)C)C(C)(C)c2c1ccc1ccccc21` [Compound 9]: in series [1] (10% DMSO in water), the “Fluorescence spectra λem” value is listed as 820 nm and the “Fluorescence spectra λex” value is on record as 771 nm.

Regarding `CC1(C)C(=CC=CC=CC=CC2=[N+](CCCS(=O)(=O)[O-])c3ccc4ccccc4c3C2(C)C)N(CCCCCC(=O)ON2C(=O)CC(S(=O)(=O)O)C2=O)c2ccc3ccccc3c21` (stereo not shown) [Compound 13], in series [1] (water), the “Fluorescence spectra λem” value is reported as 822 nm and the “Fluorescence spectra λex” value worked out at 771 nm.

With `CC1(C)C(=CC=CC=CC=CC2=[N+](CCCCS(=O)(=O)[O-])c3ccc4ccccc4c3C2(C)C)N(CCCCCC(=O)ON2C(=O)CC(S(=O)(=O)O)C2=O)c2ccc3ccccc3c21` (stereo not shown) [Compound 17, indocyanine green-N-hexanoic acid sulfosuccinimide ester], in series [1] (water), the “Fluorescence spectra λem” value came to 807 nm and the “Fluorescence spectra λex” value came to 768 nm.

For the compound `CC1(C)C(=CC=CC=CC=CC2=[N+](CCCCS(=O)(=O)[O-])c3ccc4ccccc4c3C2(C)C)N(CCCCCC(=O)ON2C(=O)CC(S(=O)(=O)O)C2=O)c2ccc3ccccc3c21` (stereo not shown) [Compound 18], the Water solubility in series [2] (double salt type (sodium iodide)) was found to be 1 mg/0.8 ml.

By solubility is commonly meant how much of the substance goes into solution per volume. For the compound `CC1(C)C(=CC=CC=CC=CC2=[N+](CCCCS(=O)(=O)[O-])c3ccc4ccccc4c3C2(C)C)N(CCCC(=O)ON2C(=O)CC(S(=O)(=O)O)C2=O)c2ccc3ccccc3c21` (stereo not shown) [Compound 19, Indocyanine green-N-butanoic acid sulfosuccinimide ester], the solubility in series [2] is not below 100 µg/mL.

`CC1(C)C(=CC=CC=CC=CC2=[N+](CCCCS(=O)(=O)[O-])c3ccc4ccccc4c3C2(C)C)N(CCCCCC(=O)ON2C(=O)CC(S(=O)(=O)O)C2=O)c2ccc3ccccc3c21` (stereo not shown) [Compound 21, Indocyanine green-N-hexanoic acid sulfosuccinimide ester]: the solubility in series [2] is not below 100 µg/mL.

In the case of `CC1(C)C(=CC=CC=CC=CC2=[N+](CCCCS(=O)(=O)[O-])c3ccc4ccccc4c3C2(C)C)N(CCCCCC(=O)ON2C(=O)CC(S(=O)(=O)O)C2=O)c2ccc3ccccc3c21` (stereo not shown) [Compound 22], the Water solubility in series [2] (double salt type (sodium perchlorate)) is given as 1 mg/5 ml.

These data come from patent publication US5968479A, “Diagnostic marker” (Daiichi Pure Chemicals Co., Ltd., priority 1995, dated 1999).
